Values quoted from earlier work, collected in PMC4008314 (Clinical cancer research : an official journal of the …, 2012).

Settings: once daily, with sorafenib and bevacizumab; cited from earlier work

Compound: O=P1(N(CCCl)CCCl)NCCCO1 (stereo not shown) [cyclophosphamide]
- recommended phase II dose: 50 mg/m^2
